Measurements from patent US20120214824A1, “PROTEOSTASIS REGULATORS” (priority 2010, published 2012).

Key:
GCLM [1] = assay: Multigene assay (QuantiGene Plex 2.0), human HeLa cell line; type: cell-based; conditions: 6 hours post-compound treatment, Table 7
Method: (§1) This assay used the QuantiGene Plex 2.0 Reagent System from Affymetrix. This assay combines the use of bDNA (branch DNA) and xMAP magnetic capture beads from Luminex Technologies to quantitatively and simultaneously detect multiple mRNA transcripts per well. The overall procedure was performed according to the QuantiGene Plex 2.0 Reagent System instruction manual from Affymetrix.
(§2) Cells were seeded at a density of 12,000 cells/well in 96-well plates with an overnight incubation at 37° C., 5% CO2. Cells were treated with serially diluted compounds in a 7-point dose dependent manner. Cell lysis with 50% [v/v] Panomics Lysis Mixture (Lysis Mixture+10 μl/ml 25 Proteinase K) was performed 6 hours post-compound treatment. Lysed cells were heated at 50° C. to ensure appropriate lysing and the plates were then frozen at −80° C. Cell lysates, thawed at room temperature on the day of the assay, were pooled with mouse 8-gene multiplex probe sets and with 8 different sets of magnetic capture beads (Luminex Technology, Austin, Tex.) in a 100 μl/well volume. Biomek FX was used at every liquid transfer step. The eight plates containing lysate-probe-bead mixtures were incubated at 54° C.±1° C. on a shaking platform for an overnight incubation in the dark (18-20 hours). The following day the hybridization plates were compressed by transferring the hybridized lysates into a single magnetic capture plate. The plate was kept on a magnet to hold the beads and then washed with Panomics Wash Buffer 2.0 on a BioTek ELx405 select plate washer to remove any unbound sample. This step was followed by serial hybridizations and washings of the bDNA pre-amplifier (1 hour, 50° C.), bDNA amplifier (1 hour, 50° C.), label probe (1 hour, 50° C.), and streptavidin-phycoerythrin (SAPE, 30 minutes, room temperature). (Zhang, A. et al. Small interfering RNA and gene expression analysis using a multiplex branched DNA assay without RNA purification. J Biomol Screen 10, 549-56 (2005)). The plate was then washed with SAPE wash buffer to remove unbound SAPE and each well was analyzed with the Luminex FlexMap3D (Luminex, Austin, Tex.). SAPE fluorescence measured from each bead was proportional to the number of mRNA transcripts captured by the beads (Zheng, Z., Luo, Y. & McMaster, G. K. Sensitive and quantitative measurement of gene expression directly from a small amount of whole blood. Clin Chem 52, 1294-302 (2006)). Fold changes in gene expression were obtained for each gene per well by normalizing the raw data first to the DMSO control and then to a housekeeping gene (TBP-TATA binding protein or Tub1-alpha-tubulin).

HspA5 [2] = assay: as above; type: cell-based; conditions: 6 hours post-compound treatment, Table 7
Method: as §1, §2

Hspa1a [3] = assay: as above; type: cell-based; conditions: 6 hours post-compound treatment, Table 7
Method: as §1, §2

SQSM = assay: as above; type: cell-based; conditions: 6 hours post-compound treatment, Table 7
Method: as §1, §2

HMOX1 = assay: as above; type: cell-based; conditions: 6 hours post-compound treatment, Table 7
DDIT3 [4] = assay: as above; type: cell-based; conditions: 6 hours post-compound treatment, Table 7
firefly luciferase = assay: Luciferase folding assay (Lucif.); type: cell-based, human; conditions: HeLa-luciferase cells
Excerpt: Firefly luciferase is a commonly used bioluminescent reporter. This monomeric enzyme of 61 kDa catalyzes a two-step oxidation reaction to yield light, usually in the green to yellow region, typically 550-570 nm. The first step of this reaction is activation of the luciferyl carboxylate by ATP to yield a reactive mixed anhydride. In the second step, the activated intermediate reacts with oxygen to create a transient dioxetane that breaks down to the oxidized products, oxyluciferin and CO2. Upon mixing with substrates, firefly luciferase produces an initial burst of light that decays over about 15 seconds to a low level of sustained luminescence. This kinetic profile reflects the slow release of the enzymatic product, thus limiting catalytic turnover after the initial reaction.
This mammalian cell based assay that used firefly luciferase as a sensor was used to screen for compounds that may modulate the cellular folding environment.
HeLa luciferase cell lines: Frozen bullets containing the cells were thawed briefly at 37° C. then placed into a T-150 flask containing 30-35 ml DMEM medium+Penicillin/Strep (1% final+10% FBS (final)+Geneticin @ 200-500 ug/ml. Cell cultures were maintained at 37° C. with 5% CO2 and water in the bottom of the incubator to keep cells healthy. Upon expanding cell line, luciferase measurements were taken to make sure that activity levels were between 2000-5000 (RLU) when plated at 15K/well in a 96-well format (Bright-Glo Promega) before compound treatment.
Compound treatment of HeLa-luciferase cells: HeLa-luciferase WT cells were plated in a 96-well format at 15K/well the day prior to performing compound treatment and/or luciferase assay. […] Final volume used per well was 90 uL. Flat bottom, white polystyrene plates were used for plating the cells.
For compound treatment, stocks of compounds were made up at 10 mM concentration in DMSO. Stocks compounds were diluted by 100× fold in the same media used for culturing the cells—this leads to a 0.1 mM (or 100 uM) concentration. After diluting the compound in media, 10 uL of the 100 uM solution was placed into each well of cells (90 uL); making the final concentration of the compound 10 uM. If serial dilutions of compounds were tested, serial dilutions of compounds were first made in DMSO accordingly, and further diluted in the media, prior to adding to cells. This procedure allowed for constant final levels of DMSO concentrations, regardless of initial compound concentration.
Performing luciferase activity assay: Bright-Glo Luciferase Assay Reagent (Promega cat #: E2610, E2620, E2650) was thawed out at RT in a water bath. Alternatively, Bright-Glo Luciferase assay buffer (prior to mixing with substrate) was stored overnight at RT, prior to using.
Following compound treatment, plates were removed from 37° C. and allowed to acclimate to RT for 5-10 min. Bright-Glo reagent was added to each cell-containing well in a 1:1 ratio (e.g., 100 uL of Bright Glo for each 100 uL cells).
Plates were placed on a plate shaker for 5 min, removing any air bubbles on the surface (which may interfere with proper reads), and then read on an EnVision 2104 Multilabel reader, Emission filter Luminescence 700, barcode 212, WL 400-700 nm.
Data for representative compounds in this assay are shown under the heading “Lucif.”

BCL2 = assay: Multigene assay (QuantiGene Plex 2.0), mouse MEF cell line; type: cell-based; conditions: 6 hours post-compound treatment
Method: as §1, §2

DDIT3 [5] = assay: as above; type: cell-based; conditions: 6 hours post-compound treatment
Method: as §1, §2

GCLM [6] = assay: as above; type: cell-based; conditions: 6 hours post-compound treatment
Method: as §1, §2

HMOX = assay: as above; type: cell-based; conditions: 6 hours post-compound treatment
Method: as §1, §2

HSPA1a [7] = assay: as above; type: cell-based; conditions: 6 hours post-compound treatment
Method: as §1, §2

HspA5 [8] = assay: as above; type: cell-based; conditions: 6 hours post-compound treatment
Method: as §1, §2

TUB1 = assay: as above; type: cell-based; conditions: 6 hours post-compound treatment
Method: as §1, §2

## CC1=C(C#N)C(c2ccccc2OC(C)C)C2=C(CC(c3ccccc3)CC2=O)N1 (centres unmarked) [D]
GCLM [1]
  GCLM gene induction: — (— Indicates less than 2 fold induction)
HspA5 [2]
  HspA5 gene induction: — (— Indicates less than 2 fold induction)
Hspa1a [3]
  HSPA1a gene induction: + (+ indicates a induction of greater than 2 fold)
SQSM
  SQSM gene induction: — (— Indicates less than 2 fold induction)
HMOX1
  HMOX1 gene induction: + (+ indicates a induction of greater than 2 fold)
DDIT3 [4]
  DDIT3 gene induction: — (— Indicates less than 2 fold induction)

## CC1=C(C(=O)OCC(C)C)C(c2ccc(F)cc2)C2=C(CC(c3cccs3)CC2=O)N1 (centres unmarked) [drawing 26/Me/COOCH2CHMe2/p-F #2]
Firefly luciferase; Table 1a
  Lucif. (luciferase activity induction): + (+ indicates a induction of greater than 2 fold)
BCL2; Table 1b
  BCL2 gene induction: − (− Indicates less than 2 fold induction)
DDIT3 [5]; Table 1a
  DDIT3 gene induction: + (+ indicates a induction of greater than 2 fold)
GCLM [6]; Table 1a
  GCLM gene induction: − (− Indicates less than 2 fold induction)
HMOX; Table 1b
  HMOX gene induction: − (− Indicates less than 2 fold induction)
HSPA1a [7]; Table 1b
  HSPA1a gene induction: − (− Indicates less than 2 fold induction)
HspA5 [8]; Table 1b
  HspA5 gene induction: − (− Indicates less than 2 fold induction)
TUB1; Table 1a
  TUB1 gene induction: − (− Indicates less than 2 fold induction)

## CCCc1n[nH]c2c1C(c1ccccc1C(F)(F)F)C(C#N)=C(N)O2 (centres unmarked) [drawing 28/(CH2)2Me/2-CF3 #1]
Firefly luciferase; Table 3a
  Lucif (luciferase activity induction): + (+ indicates a induction of greater than 2 fold)
BCL2; Table 3b
  BCL2 gene induction: − (− Indicates less than 2 fold induction)
DDIT3 [5]; Table 3a
  DDIT3 gene induction: − (− Indicates less than 2 fold induction)
GCLM [6]; Table 3a
  GCLM gene induction: + (+ indicates a induction of greater than 2 fold)
HMOX; Table 3b
  HMOX gene induction: + (+ indicates a induction of greater than 2 fold)
HSPA1a [7]; Table 3b
  HSPA1a gene induction: − (− Indicates less than 2 fold induction)
HspA5 [8]; Table 3b
  HspA5 gene induction: − (− Indicates less than 2 fold induction)
TUB1; Table 3a
  TUB1 gene induction: − (− Indicates less than 2 fold induction)

## N#CC1=C(N)NC2=C(C(=O)CC(c3ccccc3)C2)C1c1ccc(F)cc1 (centres unmarked) [drawing 27/NH2/CN/p-F/H]
Firefly luciferase; Table 2a
  Lucif (luciferase activity induction): + (+ indicates a induction of greater than 2 fold)
BCL2; Table 2b
  BCL2 gene induction: − (− Indicates less than 2 fold induction)
DDIT3 [5]; Table 2a
  DDIT3 gene induction: + (+ indicates a induction of greater than 2 fold)
GCLM [6]; Table 2a
  GCLM gene induction: − (− Indicates less than 2 fold induction)
HMOX; Table 2b
  HMOX gene induction: − (− Indicates less than 2 fold induction)
HSPA1a [7]; Table 2b
  HSPA1a gene induction: + (+ indicates a induction of greater than 2 fold)
HspA5 [8]; Table 2b
  HspA5 gene induction: − (− Indicates less than 2 fold induction)
TUB1; Table 2a
  TUB1 gene induction: − (− Indicates less than 2 fold induction)

## CC1=C(C#N)C(c2ccccc2OC(C)C)C2=C(CC(c3ccc(Cl)cc3)CC2=O)N1 (centres unmarked) [C]
GCLM [1]
  GCLM gene induction: — (— Indicates less than 2 fold induction)
HspA5 [2]
  HspA5 gene induction: + (+ indicates a induction of greater than 2 fold)
Hspa1a [3]
  HSPA1a gene induction: + (+ indicates a induction of greater than 2 fold)
SQSM
  SQSM gene induction: — (— Indicates less than 2 fold induction)
HMOX1
  HMOX1 gene induction: — (— Indicates less than 2 fold induction)
DDIT3 [4]
  DDIT3 gene induction: + (+ indicates a induction of greater than 2 fold)

## CC1=C(C(=O)OCC(C)C)C(c2ccc(F)cc2)C2=C(CC(c3ccccc3)CC2=O)N1 (centres unmarked) [drawing 27/Me/COOCH2CHMe2/p-F/H]
Firefly luciferase; Table 2a
  Lucif (luciferase activity induction): + (+ indicates a induction of greater than 2 fold)
BCL2; Table 2b
  BCL2 gene induction: − (− Indicates less than 2 fold induction)
DDIT3 [5]; Table 2a
  DDIT3 gene induction: − (− Indicates less than 2 fold induction)
GCLM [6]; Table 2a
  GCLM gene induction: − (− Indicates less than 2 fold induction)
HMOX; Table 2b
  HMOX gene induction: − (− Indicates less than 2 fold induction)
HSPA1a [7]; Table 2b
  HSPA1a gene induction: − (− Indicates less than 2 fold induction)
HspA5 [8]; Table 2b
  HspA5 gene induction: − (− Indicates less than 2 fold induction)
TUB1; Table 2a
  TUB1 gene induction: − (− Indicates less than 2 fold induction)
